Measured values taken from US11530132B2, “Composition comprising porous silica particles carrying a cell fate modulating factor” (LEMONEX INC., priority 2017, dated 2022).

Tests used:
[1] = tested on: nerve cells or fibroblasts; assay: Transfection rate of factors carried in DDV; format: cell-based; settings: factor carried in DDV
[2] = tested on: nerve cells or fibroblasts; assay: Forward differentiation rate with factors carried in DDV; format: cell-based; settings: factor carried in DDV
Source text: (§1) This process was repeated 3 times.
as §1

mES cells = assay: Neural induction of mES cells, quantitative image analysis (Tuj1-positive cells, axon length); format: cell-based, mouse; settings: after neural induction; FIG. 32
Protocol: Neural induction of mES cells was conducted by adding RA or RA/AMSN19 complex. In particular, 10^−6M RA or 25 μg of RA/AMSN19 (corresponding to 3×10^−6M including RA) was used for treatment of mES cells in a complete mES medium for 2 days. A non-induction group was cultured as a negative control group. After 2 days, the medium was replaced with a new nerve cell culture medium, N2B27. The medium was replaced on alternate days.
For quantitative analysis, 5 representative fluorescent images were obtained from different immunostain samples, respectively. The images were analyzed by an ImageJ program. For Tuj1-positive cell analysis, the number of florescent cells expressing Tuj1 more than a critical value was measured from each image, followed by calculating a ratio of the measured number to a total number of nuclei. For measurement of a length of axon, axons contained in 50 cells in each sample were analyzed by a line measurement device. In consideration of 100 representative axons, an average value was calculated.

Row | SMILES | Transfection rate [1] | Forward differentiation rate [2] | Cell conversion efficiency (rate of Tuj1 positive cells among entire cells survived) (mES cells)
1 | Nc1ncn([C@@H]2O[C@H](CO)[C@@H](O)[C@H]2O)c(=O)n1 [5-azacytidine] | 50-95% | 5-30% | 
2 | CC1=C(/C=C/C(C)=C/C=C/C(C)=C/C(=O)O)C(C)(C)CCC1 [RA, retinoic acid] |  |  | about 30%
